Organism: Rattus norvegicus
Test: Open TG-GATES - Regimen: Daily Repeat
Type: toxicity, organism-based, Sprague-Dawley
Design: regimen Daily Repeat, gender Male, age 6 weeks
Details: in vivo, iv, route intravenous injection; for APTT / Bas / Eos / Fbg / Hb / Ht / Lym / MCH / MCHC / MCV / Mono / Neu / PT / Plat / RBC / Ret / WBC: tissue Blood; for KIDNEY_L / KIDNEY_R / KIDNEY_TOTAL: tissue Kidney; for LIVER: tissue Liver; for A/G / ALP / ALT / AST / BUN / CRE / Ca / Cl / DBIL / GLC / IP / K / LDH / Na / PL / RALB / TBIL / TC / TG / TP / gamma-GTP: tissue Plasma
[1] = 0 mg/kg, 72 h, dose level Control, time 3 day
[2] = 0 mg/kg, […], dose level Control, time 7 day
[3] = 0 mg/kg, […], dose level Control, time 14 day
[4] = 0 mg/kg, […], dose level Control, time 28 day
[5] = 1 mg/kg, 72 h, dose level High, time 3 day
[6] = 1 mg/kg, […], dose level High, time 7 day
[7] = 1 mg/kg, […], dose level High, time 14 day
[8] = 1 mg/kg, […], dose level High, time 28 day

## C[C@@H]1[C@H](O)[C@@H](C)/C=C/C=C/C=C/C=C/C=C/C=C/C=C/[C@H](O[C@@H]2O[C@H](C)[C@@H](O)[C@H](N)[C@@H]2O)C[C@@H]2O[C@](O)(C[C@@H](O)C[C@@H](O)[C@H](O)CC[C@@H](O)C[C@@H](O)CC(=O)O[C@H]1C)C[C@H](O)[C@H]2C(=O)O [AMPHOTERICIN B]
[1]
  TERMINAL_BW: 239.8 g
  APTT: 16.6 s
  Bas: 0%
  Eos: 1%
  Fbg: 293.6 mg/dL
  Hb: 13.7 g/dL
  Ht: 40.1%
  Lym: 75.8%
  MCH: 20.5 pg
  MCHC: 34.2%
  MCV: 60 fL
  Mono: 2.2%
  Neu: 19.8%
  PT: 12.6 s
  Plat: 145.3 x10_4/uL
  RBC: 668.2 x10_4/ul
  Ret: 4.9%
  WBC: 97.1 x10_2/uL
  KIDNEY_L: 1 g
  KIDNEY_R: 1 g
  KIDNEY_TOTAL: 2 g
  LIVER: 11.5 g
  A/G: 0.8
  ALP: 1512.4 IU/L
  ALT: 38.6 IU/L
  AST: 66.2 IU/L
  BUN: 16.6 mg/dL
  CRE: 0.2 mg/dL
  Ca: 11 mg/dL
  Cl: 105.4 meq/L
  DBIL: 0.02 mg/dL
  GLC: 175.4 mg/dL
  IP: 7.3 mg/dL
  K: 4.1 meq/L
  LDH: 58.6 IU/L
  Na: 142.8 meq/L
  PL: 140.6 mg/dL
  RALB: 2.7 g/dL
  TBIL: 0.046 mg/dL
  TC: 73.6 mg/dL
  TG: 110.8 mg/dL
  TP: 6 g/dL
  gamma-GTP: 1.2 IU/L
[2]
  TERMINAL_BW: 275.6 g
  APTT: 17.5 s
  Bas: 0%
  Eos: 1%
  Fbg: 264.4 mg/dL
  Hb: 13.4 g/dL
  Ht: 38.9%
  Lym: 79.8%
  MCH: 20.7 pg
  MCHC: 34.4%
  MCV: 60 fL
  Mono: 2.2%
  Neu: 16%
  PT: 12.3 s
  Plat: 122.6 x10_4/uL
  RBC: 648.2 x10_4/ul
  Ret: 4.7%
  WBC: 102.1 x10_2/uL
  KIDNEY_L: 1.1 g
  KIDNEY_R: 1.1 g
  KIDNEY_TOTAL: 2.2 g
  LIVER: 12 g
  A/G: 0.8
  ALP: 1920.8 IU/L
  ALT: 35 IU/L
  AST: 69 IU/L
  BUN: 17 mg/dL
  CRE: 0.2 mg/dL
  Ca: 11.3 mg/dL
  Cl: 105.6 meq/L
  DBIL: 0.02 mg/dL
  GLC: 179.8 mg/dL
  IP: 7 mg/dL
  K: 4.3 meq/L
  LDH: 63 IU/L
  Na: 143.8 meq/L
  PL: 136.2 mg/dL
  RALB: 2.7 g/dL
  TBIL: 0.05 mg/dL
  TC: 69.8 mg/dL
  TG: 101.6 mg/dL
  TP: 5.9 g/dL
  gamma-GTP: 1 IU/L
[3]
  TERMINAL_BW: 324.6 g
  APTT: 16.3 s
  Bas: 1%
  Eos: 1%
  Fbg: 280.6 mg/dL
  Hb: 14.6 g/dL
  Ht: 41.3%
  Lym: 80%
  MCH: 20.5 pg
  MCHC: 35.4%
  MCV: 57.8 fL
  Mono: 2.4%
  Neu: 15.6%
  PT: 12.3 s
  Plat: 129.9 x10_4/uL
  RBC: 716.4 x10_4/ul
  Ret: 4%
  WBC: 134.6 x10_2/uL
  KIDNEY_L: 1.3 g
  KIDNEY_R: 1.3 g
  KIDNEY_TOTAL: 2.6 g
  LIVER: 14 g
  A/G: 0.8
  ALP: 1407.4 IU/L
  ALT: 40.8 IU/L
  AST: 66 IU/L
  BUN: 18 mg/dL
  CRE: 0.2 mg/dL
  Ca: 10.9 mg/dL
  Cl: 105 meq/L
  DBIL: 0.014 mg/dL
  GLC: 185.4 mg/dL
  IP: 7.4 mg/dL
  K: 4.2 meq/L
  LDH: 61 IU/L
  Na: 142.8 meq/L
  PL: 144.6 mg/dL
  RALB: 2.6 g/dL
  TBIL: 0.048 mg/dL
  TC: 76.2 mg/dL
  TG: 117 mg/dL
  TP: 6 g/dL
  gamma-GTP: 1 IU/L
[4]
  TERMINAL_BW: 391.3 g
  APTT: 19.2 s
  Bas: 0.4%
  Eos: 1%
  Fbg: 260.4 mg/dL
  Hb: 15.3 g/dL
  Ht: 43.7%
  Lym: 77%
  MCH: 18.9 pg
  MCHC: 35%
  MCV: 54 fL
  Mono: 1.4%
  Neu: 19%
  PT: 13 s
  Plat: 114.3 x10_4/uL
  RBC: 808.4 x10_4/ul
  Ret: 2.2%
  WBC: 119.7 x10_2/uL
  KIDNEY_L: 1.4 g
  KIDNEY_R: 1.3 g
  KIDNEY_TOTAL: 2.8 g
  LIVER: 15.5 g
  A/G: 0.7
  ALP: 1095.6 IU/L
  ALT: 36.8 IU/L
  AST: 62.2 IU/L
  BUN: 17.2 mg/dL
  CRE: 0.2 mg/dL
  Ca: 11.1 mg/dL
  Cl: 105 meq/L
  DBIL: 0.018 mg/dL
  GLC: 186 mg/dL
  IP: 6.2 mg/dL
  K: 3.8 meq/L
  LDH: 54.2 IU/L
  Na: 144.4 meq/L
  PL: 148.6 mg/dL
  RALB: 2.6 g/dL
  TBIL: 0.06 mg/dL
  TC: 73.8 mg/dL
  TG: 157 mg/dL
  TP: 6.4 g/dL
  gamma-GTP: 1.2 IU/L
[5]
  TERMINAL_BW: 235.4 g
  APTT: 15.8 s
  Bas: 0%
  Eos: 0.8%
  Fbg: 303.4 mg/dL
  Hb: 13.7 g/dL
  Ht: 39.2%
  Lym: 80.8%
  MCH: 21.3 pg
  MCHC: 34.8%
  MCV: 61.1 fL
  Mono: 2.2%
  Neu: 15.2%
  PT: 12.3 s
  Plat: 136.2 x10_4/uL
  RBC: 643 x10_4/ul
  Ret: 4.2%
  WBC: 106.4 x10_2/uL
  KIDNEY_L: 1 g
  KIDNEY_R: 1 g
  KIDNEY_TOTAL: 2 g
  LIVER: 10.7 g
  A/G: 0.8
  ALP: 1621.8 IU/L
  ALT: 32 IU/L
  AST: 61.2 IU/L
  BUN: 22.6 mg/dL
  CRE: 0.2 mg/dL
  Ca: 10.9 mg/dL
  Cl: 106.4 meq/L
  DBIL: 0.018 mg/dL
  GLC: 174.6 mg/dL
  IP: 7.1 mg/dL
  K: 4.1 meq/L
  LDH: 51.8 IU/L
  Na: 143 meq/L
  PL: 147 mg/dL
  RALB: 2.6 g/dL
  TBIL: 0.05 mg/dL
  TC: 85 mg/dL
  TG: 94.8 mg/dL
  TP: 5.9 g/dL
  gamma-GTP: 1.8 IU/L
[6]
  TERMINAL_BW: 266.4 g
  APTT: 17.2 s
  Bas: 0%
  Eos: 1%
  Fbg: 287 mg/dL
  Hb: 13.6 g/dL
  Ht: 39%
  Lym: 78%
  MCH: 20.5 pg
  MCHC: 34.9%
  MCV: 58.6 fL
  Mono: 2.2%
  Neu: 18.6%
  PT: 11.9 s
  Plat: 141.2 x10_4/uL
  RBC: 665.8 x10_4/ul
  Ret: 4.7%
  WBC: 126.3 x10_2/uL
  KIDNEY_L: 1.2 g
  KIDNEY_R: 1.1 g
  KIDNEY_TOTAL: 2.3 g
  LIVER: 12.5 g
  A/G: 0.8
  ALP: 1417.8 IU/L
  ALT: 29.8 IU/L
  AST: 57.2 IU/L
  BUN: 22.4 mg/dL
  CRE: 0.2 mg/dL
  Ca: 11.2 mg/dL
  Cl: 105.2 meq/L
  DBIL: 0.018 mg/dL
  GLC: 177.8 mg/dL
  IP: 6.7 mg/dL
  K: 4.4 meq/L
  LDH: 57.4 IU/L
  Na: 143.2 meq/L
  PL: 145.6 mg/dL
  RALB: 2.6 g/dL
  TBIL: 0.044 mg/dL
  TC: 77 mg/dL
  TG: 138.6 mg/dL
  TP: 6 g/dL
  gamma-GTP: 1.2 IU/L
[7]
  TERMINAL_BW: 304.7 g
  APTT: 16.6 s
  Bas: 0.4%
  Eos: 0.8%
  Fbg: 281.6 mg/dL
  Hb: 14.4 g/dL
  Ht: 40.7%
  Lym: 82.8%
  MCH: 20.3 pg
  MCHC: 35.4%
  MCV: 57.2 fL
  Mono: 1.6%
  Neu: 14.2%
  PT: 12.5 s
  Plat: 122.8 x10_4/uL
  RBC: 711.2 x10_4/ul
  Ret: 4.1%
  WBC: 116.3 x10_2/uL
  KIDNEY_L: 1.2 g
  KIDNEY_R: 1.2 g
  KIDNEY_TOTAL: 2.5 g
  LIVER: 12.9 g
  A/G: 0.8
  ALP: 1437.6 IU/L
  ALT: 31.6 IU/L
  AST: 63 IU/L
  BUN: 27.2 mg/dL
  CRE: 0.2 mg/dL
  Ca: 10.8 mg/dL
  Cl: 105 meq/L
  DBIL: 0.016 mg/dL
  GLC: 183.2 mg/dL
  IP: 6.7 mg/dL
  K: 4.6 meq/L
  LDH: 54 IU/L
  Na: 142.8 meq/L
  PL: 149.8 mg/dL
  RALB: 2.6 g/dL
  TBIL: 0.048 mg/dL
  TC: 75.6 mg/dL
  TG: 132.8 mg/dL
  TP: 6 g/dL
  gamma-GTP: 1 IU/L
[8]
  TERMINAL_BW: 371.1 g
  APTT: 19.3 s
  Bas: 1%
  Eos: 1%
  Fbg: 322.5 mg/dL
  Hb: 15.1 g/dL
  Ht: 42.9%
  Lym: 80.8%
  MCH: 18.9 pg
  MCHC: 35.2%
  MCV: 53.8 fL
  Mono: 2.2%
  Neu: 14.5%
  PT: 12.9 s
  Plat: 127.8 x10_4/uL
  RBC: 798.8 x10_4/ul
  Ret: 2.8%
  WBC: 135.7 x10_2/uL
  KIDNEY_L: 1.4 g
  KIDNEY_R: 1.3 g
  KIDNEY_TOTAL: 2.7 g
  LIVER: 14.4 g
  A/G: 0.6
  ALP: 1068.2 IU/L
  ALT: 30.2 IU/L
  AST: 60.2 IU/L
  BUN: 26.8 mg/dL
  CRE: 0.2 mg/dL
  Ca: 10.9 mg/dL
  Cl: 106 meq/L
  DBIL: 0.0175 mg/dL
  GLC: 178 mg/dL
  IP: 6.1 mg/dL
  K: 4 meq/L
  LDH: 52.8 IU/L
  Na: 145.2 meq/L
  PL: 128.8 mg/dL
  RALB: 2.6 g/dL
  TBIL: 0.06 mg/dL
  TC: 63.2 mg/dL
  TG: 105 mg/dL
  TP: 6.4 g/dL
  gamma-GTP: 1.2 IU/L

— ChEMBL document CHEMBL3885861, “Open TG-GATES”
